Measurements reported in publication PMC4594923, “Food Polyphenols Fail to Cause a Biologically Relevant Reduction of COX-2 Activity” (PLoS ONE, 2015).
Marks after values point to notes of the source that are not given here.

Assays:
[1] = test system: arachidonic acid (AA) cascade; experiment: liver tissue oxylipin/PG levels in LPS induced sepsis in mice; type: in vivo, C57BL/6N mice; conditions: liver tissue 24 h after LPS treatment;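 further: male C57BL/6N mice pretreated i.p. with polyphenols at 100 mg/kg bw or vehicle before LPS, liver oxylipins measured by LC-MS after solid-phase extraction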
[2] = test system: arachidonic acid (AA) cascade; experiment: plasma oxylipin/PG levels in LPS induced sepsis in mice; type: in vivo, C57BL/6N mice;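 further: male C57BL/6N mice given LPS, plasma oxylipins quantified by LC-MS after solid-phase extraction, pretreatment or vehicle given intraperitoneally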
[3] = mice, compound i. p. 100 mg/kg bw 2 h before LPS, 24 h after LPS, vs. LPS group
[4] = plasma 24 h after LPS treatment, LPS +, mean

## O=c1cc(-c2ccc(O)cc2)oc2cc(O)cc(O)c12 [Apigenin, apigenin]
[1]; mean
  4,5-DiHDPE concentration: 74 nM
  4-HDHA concentration: 12 nM
  5(6)-EpETrE concentration: 97 nM
  5,6-DiHETE concentration: < 0.30 nM
  5,6-DiHETrE concentration: 5.1 nM
  5-HEPE concentration: 2.8 nM
  5-HETE concentration: 2.8 nM
  5-iPF2α concentration: 1.1 nM
  5-oxo-ETE concentration: 15 nM
  6-keto-PGF1α concentration: 32 nM
  7,8-DiHDPE concentration: 5.2 nM
  7-HDHA concentration: 3.2 nM
  8(9)-EpETE concentration: 2.1 nM
  8(9)-EpETrE concentration: 20 nM
  8,9-DiHETE concentration: 2.3 nM
  8,9-DiHETrE concentration: 10 nM
  8,15-DiHETE concentration: < 0.80 nM
  8-HDHA concentration: 20 nM
  8-HEPE concentration: 0.98 nM
  8-HETE concentration: 8.5 nM
  8-iPF2α concentration: 2.1 nM
  9(10)-EpODE concentration: 11 nM
  9(10)-EpOME concentration: 120 nM
  9(10)-Epoxystearic acid concentration: 86 nM
  9,10,13-TriHOME concentration: 6.4^* nM
  9,10-DiHODE concentration: 8.6 nM
  9,10-DiHOME concentration: 69 nM
  9,10-Dihydroxystearic acid concentration: 53 nM
  9,12,13-TriHOME concentration: 41 nM
  9-HETE concentration: 5.2 nM
  9-HODE concentration: 370 nM
  9-HOTrE concentration: 8.1 nM
  9-oxo-ODE concentration: 120 nM
  10(11)-EpDPE concentration: 30 nM
  10,11-DiHDPE concentration: 9.8 nM
  10-HDHA concentration: 5.7 nM
  11(12)-EpETE concentration: 4.4 nM
  11(12)-EpETrE concentration: 47 nM
  11,12-DiHETE concentration: 2.9 nM
  11,12-DiHETrE concentration: 18 nM
  11-HDHA concentration: 5.5 nM
  11-HETE concentration: 21 nM
  12(13)-EpODE concentration: 5.0 nM
  12(13)-EpOME concentration: 99 nM
  12,13-DiHODE concentration: 5.7 nM
  12,13-DiHOME concentration: 140^† nM
  12-HEPE concentration: 27 nM
  12-HETE concentration: 120 nM
  13(14)-EpDPE concentration: 24 nM
  13,14-DiHDPE concentration: 11 nM
  13,14-dihydro-15-keto-PGE1 concentration: 0.57 nM
  13,14-dihydro-15-keto-PGF2α concentration: 7.0 nM
  13-HDHA concentration: 10 nM
  13-HODE concentration: 370 nM
  13-HOTrE concentration: 18 nM
  13-oxo-ODE concentration: 16 nM
  14(15)-EpETE concentration: 3.1 nM
  14(15)-EpETrE concentration: 38 nM
  14,15-DiHETE concentration: 7.4 nM
  14,15-DiHETrE concentration: 43 nM
  14-HDHA concentration: 68 nM
  15(16)-EpODE concentration: 24 nM
  15(S)-HETrE concentration: 9.0 nM
  15,16-DiHODE concentration: 49 nM
  15-HEPE concentration: 3.4 nM
  15-HETE concentration: 31 nM
  15-oxo-ETE concentration: 4.0 nM
  16(17)-EpDPE concentration: 23 nM
  16,17-DiHDPE concentration: 22 nM
  16-HDHA concentration: 6.0 nM
  17(18)-EpETE concentration: 4.2 nM
  17,18-DiHETE concentration: 15 nM
  17-HDHA concentration: 21 nM
  18-HEPE concentration: 3.3 nM
  19(20)-EpDPE concentration: 33 nM
  19,20-DiHDPE concentration: 110 nM
  20-HDHA concentration: 22 nM
  20-HEPE concentration: 15 nM
  20-HETE concentration: 7.2 nM
  EKODE concentration: 28 nM
  PGD1 concentration: 1.2 nM
  PGD2 concentration: 34 nM
  PGE1 concentration: 2.3 nM
  PGE2 concentration: 15 nM
  PGF1α concentration: 2.8 nM
  TXB2 concentration: 17 nM
  TxB3 concentration: 0.89 nM
  dihomo-PGF2α concentration: 3.6 nM
[1]; mean (first listing, r6)
  PGF2α concentration: 26 nM
[1]; mean (second listing, r9)
  PGF2α concentration: 26 nM
[2]; [3]
  plasma epoxy- and dihydroxy-fatty acid (FA) metabolites of the CYP pathway: reduced
  sum of DiHETrEs in plasma: decrease
  sum of linoleic acid (LA) derived epoxy-metabolites in plasma: decrease
[2]; [4]
  1a,1b-dihomo-PGF2α concentration in plasma: 0.27 nM
  4,5-DiHDPE concentration in plasma: 7.8 nM
  4-HDHA concentration in plasma: 1.3 nM
  5(6)-EpETrE concentration in plasma: 6.8 nM
  5,6-DiHETrE concentration in plasma: 0.62 nM
  5-HEPE concentration in plasma: 0.27 nM
  5-HETE concentration in plasma: 2.4 nM
  5-iPF2α concentration in plasma: < 0.50 nM
  5-oxo-ETE concentration in plasma: < 1.0 nM
  6-keto-PGF1α concentration in plasma: 2.1 nM
  7,8-DiHDPE concentration in plasma: 0.64 nM
  7-HDHA concentration in plasma: 0.47 nM
  8(9)-EpETrE concentration in plasma: 1.5 nM
  8,9-DiHETrE concentration in plasma: 1.4 nM
  8-HDHA concentration in plasma: 3.0 nM
  8-HETE concentration in plasma: 3.1 nM
  8-iPF2a concentration in plasma: 0.19 nM
  9(10)-EpODE concentration in plasma: 2.2^* nM
  9(10)-EpOME concentration in plasma: 24^* nM
  9(10)-Epoxystearic acid concentration in plasma: 18 nM
  9,10,13-TriHOME concentration in plasma: 3.3 nM
  9,10-DiHODE concentration in plasma: 4.0 nM
  9,10-DiHOME concentration in plasma: 34 nM
  9,10-Dihydroxystearic acid concentration in plasma: 47^‡ nM
  9,12,13-TriHOME concentration in plasma: 38 nM
  9-HODE concentration in plasma: 83 nM
  9-HOTrE concentration in plasma: 6.1 nM
  9-oxo-ODE concentration in plasma: 16 nM
  10(11)-EpDPE concentration in plasma: 1.7 nM
  10,11-DiHDPE concentration in plasma: 0.58^* nM
  10-HDHA concentration in plasma: 3.0 nM
  11(12)-EpETrE concentration in plasma: 2.0 nM
  11,12-DiHETE concentration in plasma: < 0.13 nM
  11,12-DiHETrE concentration in plasma: 1.1^* nM
  11-HDHA concentration in plasma: 0.67 nM
  11-HETE concentration in plasma: 1.8 nM
  12(13)-EpODE concentration in plasma: 1.8 nM
  12(13)-EpOME concentration in plasma: 29^* nM
  12,13-DiHODE concentration in plasma: 4.5 nM
  12,13-DiHOME concentration in plasma: 114 nM
  12-HEPE concentration in plasma: 25 nM
  12-HETE concentration in plasma: 260 nM
  13(14)-EpDPE concentration in plasma: 1.2 nM
  13,14-DiHDPE concentration in plasma: 0.58^* nM
  13,14-dihydro-15-keto-PGE1 concentration in plasma: 0.14 nM
  13,14dihydro-15-keto-PGF2α concentration in plasma: 0.41 nM
  13-HDHA concentration in plasma: 0.98 nM
  13-HODE concentration in plasma: 110^* nM
  13-HOTrE concentration in plasma: 5.7 nM
  13-oxo-ODE concentration in plasma: 2.5 nM
  14(15)-EpETE concentration in plasma: 0.14^† nM
  14(15)-EpETrE concentration in plasma: 1.5^* nM
  14,15-DiHETE concentration in plasma: 0.19^† nM
  14,15-DiHETrE concentration in plasma: 2.2 nM
  14-HDHA concentration in plasma: 71 nM
  15(16)-EpODE concentration in plasma: 1.2 nM
  15(S)-HETrE concentration in plasma: 0.94 nM
  15,16-DiHODE concentration in plasma: 24 nM
  15-HETE concentration in plasma: 2.5 nM
  15-oxo-ETE concentration in plasma: 0.29 nM
  16(17)-EpDPE concentration in plasma: 1.2 nM
  16,17-DiHDPE concentration in plasma: 1.2^* nM
  16-HDHA concentration in plasma: 1.0 nM
  17(18)-EpETE concentration in plasma: 0.68^* nM
  17,18-DiHETE concentration in plasma: 1.2^* nM
  17-HDHA concentration in plasma: 5.2 nM
  18-HEPE concentration in plasma: 0.26 nM
  19(20)-EpDPE concentration in plasma: 9.4 nM
  19,20-DiHDPE concentration in plasma: 11 nM
  20-HDHA concentration in plasma: 2.2 nM
  20-HEPE concentration in plasma: 1.7^* nM
  20-HETE concentration in plasma: 1.6 nM
  EKODE concentration in plasma: 7.0 nM
  PGD2 concentration in plasma: < 0.50 nM
  PGE2 concentration in plasma: 1.3 nM
  PGF1α concentration in plasma: 0.10 nM
  PGF2α concentration in plasma: 0.42 nM
  TXB2 concentration in plasma: 1.1 nM
